# Source: the supplement of paper PMC10307832
# Experiments:
# Assay in all cases: relative viability (nuclei count vs DMSO), 5 days (fraction); higher = more cells survive
# Zebularine + Trametinib = compound: O=c1ncccn1[C@@H]1O[C@H](CO)[C@@H](O)[C@H]1O [Zebularine] + CC(=O)Nc1cccc(-n2c(=O)n(C3CC3)c(=O)c3c(Nc4ccc(I)cc4F)n(C)c(=O)c(C)c32)c1 [Trametinib] (partner 0.02 µM)
# In short: (§1)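 After 5 days of treatment, lung cancer cells in 1536-well plates were fixed and stained in a single step (final 0.05% Triton X-100, 1% formaldehyde, 1 ug/ml Hoechst) and their nuclei counted on 4× images. Treatment had been applied by pin tool the day after seeding as one drug alone or as a fixed anchor-drug dose with five library-drug doses (not always all listed) in √10 steps. Relative viability is the nuclei count of treated wells divided by that of vehicle wells, and values are medians of duplicate plates.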
# Zebularine + Pictilisib = compound: O=c1ncccn1[C@@H]1O[C@H](CO)[C@@H](O)[C@H]1O [Zebularine] + CS(=O)(=O)N1CCN(Cc2cc3nc(-c4cccc5[nH]ncc45)nc(N4CCOCC4)c3s2)CC1 [Pictilisib] (partner 1 µM)
# In short: as §1
# BI-D1870 + Dasatinib = compound: CC(C)CCN1c2nc(Nc3cc(F)c(O)c(F)c3)ncc2N(C)C(=O)C1C [BI-D1870] + Cc1nc(Nc2ncc(C(=O)Nc3c(C)cccc3Cl)s2)cc(N2CCN(CCO)CC2)n1 [Dasatinib] (partner 0.075 µM)
# In short: as §1
# Zebularine + Foretinib = compound: O=c1ncccn1[C@@H]1O[C@H](CO)[C@@H](O)[C@H]1O [Zebularine] + COc1cc2c(Oc3ccc(NC(=O)C4(C(=O)Nc5ccc(F)cc5)CC4)cc3F)ccnc2cc1OCCCN1CCOCC1 [Foretinib] (partner 0.25 µM)
# In short: as §1
Cell Line,relative viability (Zebularine + Trametinib; first compound 1 µM),relative viability (Zebularine + Trametinib; first compound 3.162 µM),relative viability (Zebularine + Trametinib; first compound 10 µM),relative viability (Zebularine + Trametinib; first compound 31.62 µM),relative viability (Zebularine + Trametinib; first compound 100 µM),relative viability (Zebularine + Pictilisib; first compound 1 µM),relative viability (Zebularine + Pictilisib; first compound 3.162 µM),relative viability (Zebularine + Pictilisib; first compound 10 µM),relative viability (Zebularine + Pictilisib; first compound 31.62 µM),relative viability (Zebularine + Pictilisib; first compound 100 µM),relative viability (BI-D1870 + Dasatinib; first compound 0.04 µM),relative viability (BI-D1870 + Dasatinib; first compound 0.1265 µM),relative viability (BI-D1870 + Dasatinib; first compound 0.4 µM),relative viability (BI-D1870 + Dasatinib; first compound 1.265 µM),relative viability (BI-D1870 + Dasatinib; first compound 4 µM),relative viability (Zebularine + Foretinib; first compound 1 µM),relative viability (Zebularine + Foretinib; first compound 3.162 µM),relative viability (Zebularine + Foretinib; first compound 10 µM),relative viability (Zebularine + Foretinib; first compound 31.62 µM),relative viability (Zebularine + Foretinib; first compound 100 µM)
HCC-44,1.04,1.11,0.968,1.1,0.668,0.535,0.648,0.375,0.625,0.323,–,–,–,–,–,–,–,–,–,–
HCC-827,0.535,0.574,0.492,0.546,0.404,1.19,0.977,0.835,0.738,0.544,0.383,0.373,0.321,0.412,0.26,1.15,1.07,0.718,0.714,0.317
NCI-H1623,–,–,–,–,–,–,–,–,–,–,0.558,0.581,0.527,0.473,0.452,1,0.733,0.723,0.791,0.484
NCI-H2347,0.294,0.299,0.237,0.312,0.235,0.8,0.529,0.439,0.558,0.462,0.345,0.319,0.332,0.306,0.297,1.02,0.856,0.881,0.614,0.813
PC-14,0.7,0.517,0.197,0.117,0.101,0.767,0.574,0.151,0.111,0.0955,0.27,0.241,0.272,0.239,0.259,1.03,0.878,0.48,0.191,0.158
NCI-H1651,0.875,0.865,0.82,0.772,0.35,0.71,0.732,–,0.571,0.418,0.405,0.293,0.345,0.297,0.237,0.856,0.93,0.511,0.738,0.374
HARA,1.03,0.458,0.48,0.688,0.651,0.432,0.392,–,0.606,0.35,0.195,0.195,0.233,0.282,0.302,0.979,–,–,0.912,0.584
NCI-H1650,0.674,0.597,0.399,0.9,0.488,0.72,0.447,–,0.839,0.488,0.266,0.393,0.32,0.281,0.273,1.26,1.02,0.905,1.46,1.07
NCI-H1395,1.15,1.05,0.966,0.767,0.62,0.681,0.568,0.493,0.606,0.42,0.471,0.432,0.428,0.359,0.384,0.852,0.961,0.772,0.608,0.445
LU99A,0.604,0.503,0.502,0.329,0.195,0.329,0.305,0.324,0.283,0.198,0.753,0.51,0.512,0.467,0.425,0.884,0.807,0.577,0.436,0.195
NCI-H1355,0.449,0.45,0.468,0.383,0.335,0.45,0.272,0.371,0.426,0.254,0.886,0.726,0.767,0.838,0.674,1.02,0.907,0.631,0.47,0.325
HCC-78,0.893,0.742,–,0.794,0.436,0.223,0.192,0.211,0.254,0.197,0.362,0.382,0.422,0.442,0.33,0.523,0.547,0.53,0.584,0.477
NCI-H1563,–,–,–,–,–,0.645,0.607,0.636,0.674,0.706,0.456,0.434,0.425,0.506,0.477,0.915,0.952,0.922,0.991,0.898
HCC-15,0.375,0.377,0.395,0.392,0.298,0.826,0.424,0.536,0.666,0.249,0.656,0.533,0.582,0.517,0.287,1.21,1.08,0.833,0.861,0.434
EKVX,0.51,0.328,–,0.294,0.321,0.419,0.456,–,0.487,0.401,0.719,0.456,0.522,0.554,0.454,0.893,0.624,0.731,0.753,0.75
NCI-H2087,0.195,0.166,0.204,0.206,0.142,0.92,0.703,0.583,0.752,0.368,0.93,0.798,0.921,0.891,0.743,1.06,1.04,0.782,0.791,0.284
LK-2,0.626,0.669,0.476,0.459,0.441,0.617,0.747,0.266,0.383,0.36,0.442,0.359,0.239,0.241,0.281,1.33,1.08,0.529,0.756,0.403
